Experimental findings from patent US20070110720A1, “Vectors, mutant viruses and methods for generating mutant viruses” (priority 2003, published 2007) are described below.

SMILES strings stand for the structures. Entries after “also recorded” stand apart in the source; their conditions may differ.

One data set has as its system C8161 cells. Format: cell-based, human. As to conditions: 50 μM CB1954 alone.
Data set [1] in a line: Scheduling experiment: tolerability of injections. The data set is classed as in vivo, athymic nude mice. As to conditions: 80 mg/kg intra-peritoneal in 10% acetone/peanut oil. Here is the method: (§1) The treatment groups were administered with a single direct intratumoural injection of the virus and dose determined for that group. The virus was diluted PBS+10% serum. ‘No virus’ control groups received an intratumoural injection of 100 μl of PBS+10% serum. This day was designated as Experimental Day 0.
Some tumours bleed slightly after injection but not to a great degree. […] In all the tumours that bleed slightly, the following day the healing process had begun and within 3-5 days there was little evidence of any puncture wound on any tumour.
(§2) Injections of CB1954 were given to the appropriate groups at days 2, 10 and 15. A dose of 80 mg/kg—the equivalent of approx. 2 mg per mouse—was given. The powdered form of the CB1954 drug (from Sigma) was dissolved in acetone to 10% of the final volume (10 μl per 2 mg). The volume was then made up to 2 mg CB1954 in 100 μl using peanut oil. A syringe was used to mix the drug as peanut oil is thick and viscous. The drug was made up fresh every time.
(§3) The appropriate groups were then injected intra-peritoneal with this solution. Control groups which were not receiving drug were injected intra-peritoneal with a 100 μl solution of 10% acetone in peanut oil.

For a further data set, the system named is A2780 xenografts. Description: Naked DNA experiment: CMV-ntr plasmid and CB1954 in xenograft tumours. The data set is classed as in vivo, mice. As to conditions: single agent: CMV-ntr 0.2 mg DNA intratumoural Day 0, or CB1954 80 mg/kg intra-peritoneal Day 2. Here is the method: In order to check the alterations in tumour growth are due to the virus itself and not a result of the CMV-ntr plasmid DNA that had been introduced to the HSV 1716 virus, an experiment was set up looking at the effect of the CMV-ntr plasmid DNA alone and in combination with the prodrug CB1954.
Mice were randomised into treatment groups of 6 animals each when tumour diameters are approximately 5 mm (this is Day 0). […] Two groups of mice were administered CMV-ntr plasmid by direct intratumoural injection at a dose of 0.2 mg DNA per injection. One of these groups was then administered with a single dose of 80 mg/kg of CB1954 on Day 2 by intra-peritoneal injection. […] Animals were weighed daily (FIG. 23) and daily caliper measurements performed until the tumour sizes were in the region of 20 mm by 20 mm. Tumour volumes were estimated from these measurements (volume=[…]) (FIG. 24). In addition any toxicity from these administered agents was determined.

A further data set concerns confluent 3T6 cells. Format: cell-based. As to conditions: 50 μM CB1954 alone.
Another data set has as its system A2780 xenograft. In words: Scheduling experiment: tumour volume after virus and CB1954. Format: in vivo, athymic nude mice. Here is the method:
Mice were randomized into treatment groups (treatment regimes shown in Table 2) of 3 animals when tumour diameters were approximately 5 mm (tumour volume […]).
as §1, §2, §3

Take `NC(=O)c1cc(N2CC2)c([N+](=O)[O-])cc1[N+](=O)[O-]` [CB1954]: in the data set on C8161 cells, the cell death entry is “no effect”. In data set [1], the “body weight after intra-peritoneal injection” value is reported as “did not lose any body weight” and the “swelling or irritation at the site of injection” value is given as “No swelling or irritation”. Moreover, the “anti-tumour activity as determined by tumour regression” value in the data set with A2780 xenografts was “neither the CMV-ntr alone, CB1954 alone or the combination of both CMV-ntr and CB1954, has any anti-tumour activity”. For the same compound, the cell death entry in the data set on confluent 3T6 cells was “no effect; also recorded: does not result in any significant cell death”. The “effect on tumour growth” value in the data set with A2780 xenograft (CB1954 alone, 80 mg/kg intra-peritoneal, no virus (groups 5, 6, 7, 13)) is “little effect on tumour growth”. Moreover, the “tumour growth delay by timing of prodrug” value in the data set on A2780 xenograft (CB1954 given Day 2 post viral injection versus Day 10) was “tumour growth was not delayed as much as if the drug was given at a later date”.
